Experimental data as given in the supplement of paper PMC11208160.

assay: recombinant UMI read abundance after kanamycin selection (control-corrected) (log10(CPM+1)); higher = more efficient recombination; extreme values may be limits of the assay; sequences stand for … in AGTGCAGAGAAAATCGGCCAGTTTTCTCTGCCTGCAGTCCGCATGCCGTGGGACCCCTTGGGTTCTAACCTGTTGCCTAGATTTATGCAGCGGACTGCCTTTCTCCCAAAGTGATAAACCGG…AGGTTGGTTTCACT; site = the 11-nt donor
Outline: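 In a pooled Escherichia coli screen for the IS621 bridge recombinase, donor and donor-binding-loop pairs were each placed with a 12-nt UMI on a plasmid bearing a promoterless kanamycin gene. This library was co-electroporated with a target plasmid encoding a fixed target and T7-inducible recombinase, and cells were plated either on IPTG (0.07 mM) plus kanamycin or without selection, in two replicates each. Recombinant UMIs were PCR-amplified across the donor–target junction and sequenced, and counts were converted to CPM, averaged over replicates, scaled by control-derived factors and reported as log10(CPM+1).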
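Further: IS621 bridge recombinase in Escherichia coli cells against a fixed T5 target plasmid.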

| Sequence | recombinant UMI read abundance (log10) |
| --- | --- |
| CGGGAGTCATGGACCGGTTTTCCCGGTAATCCGTATTTGTC (site CGGGAGTCTGA) | 3.19 |
| GCCCGAGCATGGACCGGTTTTCCCGGTAATCCGTATTTGAA (site GCCCGAGCTTT) | 1.82 |
| AGTTAGACATGGACCGGTTTTCCCGGTAATCCGTATTTGAG (site AGTTAGACTCT) | 1.23 |
| TCGCTCCCATGGACCGGTTTTCCCGGTAATCCGTATTTGAA (site TCGCTCCCTTT) | 0.0848 |
| GTGGCCTCATGGACCGGTTTTCCCGGTAATCCGTATTTGGA (site GTGGCCTCTTC) | 1.43 |
| TGCCGTACATGGACCGGTTTTCCCGGTAATCCGTATTTGCT (site TGCCGTACTAG) | 1.25 |
| CTCCCTGCATGGACCGGTTTTCCCGGTAATCCGTATTTGAG (site CTCCCTACTCT) | 0.664 |
| GGAGGGGCATGGACCGGTTTTCCCGGTAATCCGTATTTGGT (site GGAGTGGCTAC) | 0.0205 |
| AGCCTTACATGGACCGGTTTTCCCGGTAATCCGTATTTGAC (site AGCCTTGCTGT) | 0 |
| GTTGTTACATGGACCGGTTTTCCCGGTAATCCGTATTTGGT (site GTTGTTCCTAC) | 0 |
| TCACAGCCATGGACCGGTTTTCCCGGTAATCCGTATTTGCA (site TCACAGCCTTG) | 0.816 |
| AAAGTAACATGGACCGGTTTTCCCGGTAATCCGTATTTGCA (site AAAGTAACTTG) | 2.88 |
| ACACATCCATGGACCGGTTTTCCCGGTAATCCGTATTTGAG (site ACACATCCTAT) | 0.549 |
| CTCCACACATGGACCGGTTTTCCCGGTAATCCGTATTTGAC (site CTCCACACTGT) | 2.47 |
| TATTTGTCATGGACCGGTTTTCCCGGTAATCCGTATTTGTG (site TATTTGACTCA) | 0.0169 |
| CGAACATCATGGACCGGTTTTCCCGGTAATCCGTATTTGAT (site CGAACATCTAT) | 1.63 |
| CCGTTAGCATGGACCGGTTTTCCCGGTAATCCGTATTTGTG (site CCGTTAGCTTA) | 0 |
| CGTTAGGCATGGACCGGTTTTCCCGGTAATCCGTATTTGAG (site CGTTAGACTCT) | 0.855 |
| AACACCTCATGGACCGGTTTTCCCGGTAATCCGTATTTGAT (site AACACCTCTAT) | 1.76 |

| Sequence | recombinant UMI read abundance (log10) |
| --- | --- |
| AGTGTATCATGGACCGGTTTTCCCGGTAATCCGTATTTGCA (site AGTGTATCTTG) | 2.25 |
| AGGAAGACATGGACCGGTTTTCCCGGTAATCCGTATTTGCA (site AGGAAGCCTGG) | 0 |
| CCTAATACATGGACCGGTTTTCCCGGTAATCCGTATTTGCC (site CCTAATACTGT) | 0 |
| GACAAACCATGGACCGGTTTTCCCGGTAATCCGTATTTGGG (site GACAAACCTAC) | 0.0248 |
| GACCTTTCATGGACCGGTTTTCCCGGTAATCCGTATTTGTT (site GACCTTTCTAA) | 0 |
| TAGAATACATGGACCGGTTTTCCCGGTAATCCGTATTTGCC (site TAGAATACTAG) | 0 |
| CGTGAAACATGGACCGGTTTTCCCGGTAATCCGTATTTGTT (site CGTGGAACTAA) | 0 |
| CGGACATCATGGACCGGTTTTCCCGGTAATCCGTATTTGCT (site CAGACATCTAG) | 1.53 |
| ACCTAGACATGGACCGGTTTTCCCGGTAATCCGTATTTGAG (site ACCTAGACTCA) | 0.226 |
| ACATCTACATGGACCGGTTTTCCCGGTAATCCGTATTTGTA (site ACATCTACTGA) | 0 |
| AGGAAGACATGGACCGGTTTTCCCGGTAATCCGTATTTGTA (site AGGAAGACTTG) | 2.11 |
| CCATGTGCATGGACCGGTTTTCCCGGTAATCCGTATTTGAT (site CCACGTGCTAT) | 0.215 |
| ACCATATCATGGACCGGTTTTCCCGGTAATCCGTATTTGTC (site GCCATATCTGA) | 0 |
| AATTTAGCATGGACCGGTTTTCCCGGTAATCCGTATTTGTC (site AATTTAGCTGA) | 0.582 |
| ACGATTGCATGGACCGGTTTTCCCGGTAATCCGTATTTGGA (site ACGATTGCTTC) | 1.97 |
| CCATGTGCATGGACCGGTTTTCCCGGTAATCCGTATTTGAT (site CCAAGTGCTAT) | 0.00273 |
| AGTAACACATGGACCGGTTTTCCCGGTAATCCGTATTTGCA (site AGGAAGACTTG) | 0 |
| AGAAAGCCATGGACCGGTTTTCCCGGTAATCCGTATTTGCT (site AGAAAGACTAG) | 0 |
